For 10 molecules, IC50 and melting point results are on record in patent publication US9365528B2 (Southern Research Institute, priority 2011, dated 2016).

SMILES strings stand for the structures. Like-named read-outs stand apart in the source and are kept apart here. Some results are limits rather than exact numbers.

One data set deals with HT29. The experiment in a line: Tumor cell growth inhibition, cell viability assay (Cell Titer Glo), 72 h. The format is cell-based. The settings on record: Homo sapiens, HT-29. The method, then: (§1) The potency to inhibit tumor cell growth was determined by calculating IC50 values using a standard cell viability assay (Cell Titer Glo, Promega Corp,) following 72 hours of treatment. The human colon tumor cell lines, HT-29, SW480, HCT116, and Colo 741 were derived from colon adenocarcinomas, while LT97 is derived from an adenoma. Fetal human colonocytes (FHC) are representative of normal colonocytes. The lack of effect inhibiting cyclooxygenases 1 and 2 (COX-1 and -2) is also shown.
(In ATP-based viability assays light output follows the ATP content of the culture.)

Another data set has as its system PC3. The experiment in a line: Tumor cell growth inhibitory activity. The format is cell-based. As to conditions: Homo sapiens, PC-3.
In a further data set the test system is MDA-MB-231. The experiment in a line: Tumor cell growth inhibition, cell viability assay (Cell Titer Glo), 72 h. The settings on record: Homo sapiens.
The test system of the next data set is Colo741. The description is as above. The format is cell-based. As to conditions: Homo sapiens, COLO-741; Table 3; colon adenocarcinoma; 72 hours of treatment. How it is done:
as §1

The subject of the next data set is HCT116. The data set is described as above. The format is cell-based. As to conditions: Homo sapiens, HCT-116. How it is done: as §1
Another data set concerns LT97. The data set is described as above. The format is cell-based. As to conditions: Homo sapiens; Table 3; adenoma; 72 hours of treatment. How it is done:
as §1

In another data set the test system is SW480. Described as above. The format is cell-based. The settings on record: Homo sapiens. The method, then:
as §1

In data set [1] the test system is Fetal human colonocytes (FHC). The experiment in a line: Cell growth inhibition, cell viability assay (Cell Titer Glo), 72 h. The format is cell-based. The settings on record: Table 3, normal colonocytes, 72 hours of treatment. How it is done: as §1
For the next data set, the system named is MCF-7. The experiment in a line: Breast tumor cell growth inhibitory activity. The format is cell-based. As to conditions: Homo sapiens, MCF7; Table 1, breast.
For the next data set, the system named is SKBR3. The experiment in a line: Breast tumor cell growth inhibitory activity. The format is cell-based. As to conditions: Homo sapiens, SK-BR-3; Table 1, breast.
Another data set deals with COX-1 (Homo sapiens, UniProt P23219). The experiment in a line: COX inhibition, colorimetric assay with recombinant COX enzymes.
Sequence of COX-1 (P23219 24-599): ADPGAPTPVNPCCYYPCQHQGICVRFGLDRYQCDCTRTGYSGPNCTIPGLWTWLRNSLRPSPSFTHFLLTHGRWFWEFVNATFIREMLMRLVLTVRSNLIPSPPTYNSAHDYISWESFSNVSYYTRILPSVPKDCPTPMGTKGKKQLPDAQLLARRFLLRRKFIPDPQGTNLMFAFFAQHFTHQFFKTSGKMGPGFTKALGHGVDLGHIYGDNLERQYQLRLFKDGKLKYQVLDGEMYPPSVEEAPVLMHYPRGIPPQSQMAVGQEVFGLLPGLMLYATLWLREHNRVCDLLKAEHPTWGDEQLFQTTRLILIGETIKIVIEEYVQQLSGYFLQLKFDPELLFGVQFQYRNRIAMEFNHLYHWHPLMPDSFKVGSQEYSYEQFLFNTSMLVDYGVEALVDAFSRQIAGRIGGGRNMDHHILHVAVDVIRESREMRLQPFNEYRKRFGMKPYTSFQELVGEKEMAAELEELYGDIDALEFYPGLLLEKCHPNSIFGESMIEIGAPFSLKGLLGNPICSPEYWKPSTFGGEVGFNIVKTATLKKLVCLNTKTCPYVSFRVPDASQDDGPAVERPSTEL
In the next data set the target is T1, COX-2 (Homo sapiens, UniProt P35354).
T1 sequence (P35354 18-604): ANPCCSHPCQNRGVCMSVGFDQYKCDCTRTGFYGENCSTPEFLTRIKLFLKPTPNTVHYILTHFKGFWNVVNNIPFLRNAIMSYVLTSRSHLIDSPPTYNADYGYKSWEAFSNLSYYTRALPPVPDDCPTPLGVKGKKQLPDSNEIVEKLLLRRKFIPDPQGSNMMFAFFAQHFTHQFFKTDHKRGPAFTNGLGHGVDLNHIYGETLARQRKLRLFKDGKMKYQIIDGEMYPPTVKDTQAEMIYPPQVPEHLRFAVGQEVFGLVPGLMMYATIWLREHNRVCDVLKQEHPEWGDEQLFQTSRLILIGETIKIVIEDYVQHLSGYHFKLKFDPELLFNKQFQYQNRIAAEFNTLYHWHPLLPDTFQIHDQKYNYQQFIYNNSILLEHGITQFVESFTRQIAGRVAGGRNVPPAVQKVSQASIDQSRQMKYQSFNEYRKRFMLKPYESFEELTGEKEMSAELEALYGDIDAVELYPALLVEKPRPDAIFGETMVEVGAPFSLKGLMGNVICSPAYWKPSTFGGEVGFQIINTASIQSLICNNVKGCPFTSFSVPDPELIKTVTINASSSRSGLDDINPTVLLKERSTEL
The description is as above.

Setting [2] is: Table 1, compounds 10-13, read-out: Tumor cell growth inhibitory activity (IC50, μM) HT29.
Setting [3] is: scheme table, read-out: IC50 (μM) HT29.
[4] abbreviates: Table 1, compounds 10-13, read-out: Tumor cell growth inhibitory activity (IC50, μM) PC3.
The mark [5] stands for this setting: scheme table, read-out: IC50 (μM) PC3.
Where [6] appears, read: MDA-MB-231, read-out: IC50 (μM) MDA-MB-231.
[7] abbreviates: MDA-MB-231, read-out: Tumor cell growth inhibitory activity (IC50, μM) MDA-MB-231 (breast).
The mark [8] stands for this setting: Table 3, colon adenocarcinoma, 72 hours of treatment, read-out: HCT116 (IC50).
Setting [9] is: Table 3, colon adenocarcinoma, 72 hours of treatment, read-out: HT29 (IC50).
Setting [10] is: Table 3, colon adenocarcinoma, 72 hours of treatment, read-out: SW480 (IC50).
The mark [11] stands for this setting: Table 1, colon, read-out: Colon tumor cell growth inhibitory activity (IC50, μM) HCT116.
[12] abbreviates: Table 1, colon, read-out: Colon tumor cell growth inhibitory activity (IC50, μM) HT29.
The mark [13] stands for this setting: Table 1, colon, read-out: Colon tumor cell growth inhibitory activity (IC50, μM) SW480.
Where [14] appears, read: MDA-MB-231, read-out: Breast tumor cell growth inhibitory activity (IC50, μM) MDA-MB-231.

Description for COX-1: (§2) The enzyme activity was measured using a colorimetric assay using recombinant COX enzymes. […] The growth inhibitory activity was determined following 72 hours of treatment using a standard cell viability assay (Cell Titer Glo, Promega Corp).
Description for COX-2: as §2
Description for MDA-MB-231: as §2

For orientation: IC50 means the concentration needed to halve the response being measured. For `CSc1ccc(/C=C2/C(C)=C(CN)c3cc(F)ccc32)cc1` [Compound 10, (Z)-(5-Fluoro-2-methyl-1-(4-(methylthio)benzylidene)-1H-inden-3-yl)methanamine], the IC50 in the data set on HT29 (setting [2]) worked out at 16 µM; with HT29 (setting [3]), 16 µM; in the data set with PC3 (setting [4]), 33.6 µM; with PC3 (setting [5]), 33.6 µM; with MDA-MB-231 (setting [6]), 19.3 µM; in the data set on MDA-MB-231 (setting [7]), 19.3 µM.

Consider `CSc1ccc(/C=C2/C(C)=C(CC(=O)O)c3cc(F)ccc32)cc1` [Sulindac sulfide, reference compound], for which the IC50 with Colo741 was 150 µM; in the data set on HCT116 (setting [8]), 73.3 µM; with HT29 (setting [9]) it was 73.6 µM; in the data set with LT97, 37.8 µM; in the data set on SW480 (setting [10]), 85.2 µM; in data set [1], above 200 µM.

With `CSc1ccc(/C=C2/C(C)=C(CCN)c3cc(F)ccc32)cc1` [Compound 4], the half-inhibitory concentration (IC50) was 4.9 µM in the data set with HCT116 (setting [11]); 4.1 µM in the data set with HT29 (setting [12]); 4.1 µM in the data set with SW480 (setting [13]); 5.9 µM with MCF-7; 3.9 µM with SKBR3; 5.5 µM in the data set with MDA-MB-231 (setting [14]).

As for `CSc1ccc(/C=C2/C(C)=C(CN(Cc3ccncc3)Cc3ccncc3)c3cc(F)ccc32)cc1` [Compound 12, (Z)-1-(5-Fluoro-2-methyl-1-(4-(methylthio)benzylidene)-1H-inden-3-yl)-N,N-bis(pyridin-4-ylmethyl)methanamine], the IC50 was 10.8 µM with HT29 (setting [2]); 10.8 µM with HT29 (setting [3]); 12.7 µM in the data set on PC3 (setting [4]); 12.7 µM in the data set with PC3 (setting [5]); 9.5 µM in the data set with MDA-MB-231 (setting [6]); 9.5 µM in the data set with MDA-MB-231 (setting [7]).

`CSc1ccc(/C=C2/C(C)=C(CCNCCN3CCCCC3)c3cc(F)ccc32)cc1` [Compound 3]: the IC50 in the data set on HCT116 (setting [11]) worked out at 3.8 µM; in the data set with HT29 (setting [12]) it was 3 µM; in the data set with SW480 (setting [13]), 5.4 µM; with MCF-7 it was 6.4 µM; in the data set with SKBR3 it was 4.8 µM; in the data set with MDA-MB-231 (setting [14]), 5.3 µM.

Turning to `CSc1ccc(/C=C2/C(C)=C(CCNCc3ccccc3)c3cc(F)ccc32)cc1` [Compound 1], the half-maximal inhibitory concentration (IC50) with Colo741 is 8.85 µM; in the data set on HCT116 (setting [11]), 4.9 µM; in the data set on HCT116 (setting [8]), 4.93 µM; in the data set on HT29 (setting [12]), 2.7 µM; with HT29 (setting [9]), 2.67 µM; with LT97, 6.82 µM. Moreover, the concentration for half-maximal inhibition (IC50) with SW480 (setting [13]) is 3.3 µM; with SW480 (setting [10]), 3.28 µM; in the data set on MCF-7, 6.8 µM; in the data set on SKBR3, 3.4 µM; in data set [1], 7.83 µM; on COX-1, above 200 µM. Further, the concentration for half-maximal inhibition (IC50) on COX-2 is above 200 µM; in the data set with MDA-MB-231 (setting [14]), 5.8 µM.

As to `CC1=C(CCNCc2ccco2)c2cc(F)ccc2/C1=C\c1ccc([S+](C)[O-])cc1` (centres unmarked) [Compound 7], the figures for the half-inhibitory concentration (IC50) in the data set with HT29 (setting [12]) and in the data set with MDA-MB-231 (setting [14]) were 2.3 µM and 3.7 µM, respectively.

For the molecule `CC1=C(CCNCc2ccccc2)c2cc(F)ccc2/C1=C\c1ccc(S(C)(=O)=O)cc1` [Compound 9], the IC50 in the data set with Colo741 amounted to 5.87 µM; with HCT116 (setting [8]), 6.44 µM; in the data set on HT29 (setting [12]), 1.8 µM; with HT29 (setting [9]), 2.02 µM; in the data set on LT97 it was 8.85 µM; in the data set with SW480 (setting [10]), 5.36 µM. Further, the figures for the half-maximal inhibitory concentration (IC50) (in [1]; on COX-1; at COX-2) were 11.2 µM, above 100 µM and above 100 µM, respectively.

As a reminder, the melting point is the temperature, or range, at which the solid turns liquid. `COc1cc(/C=C2/C(C)=C(CN(Cc3ccncc3)Cc3ccncc3)c3cc(F)ccc32)cc(OC)c1OC` [Compound 13, (Z)-1-(5-Fluoro-2-methyl-1-(3,4,5-trimethoxybenzylidene)-1H-inden-3-yl)-N,N-bis(pyridin-4-ylmethyl)methanamine] registered a melting point of 66.4 °C. The half-inhibitory concentration (IC50) in the data set on HT29 (setting [2]) is 9.83 µM. Further, in the data set on HT29 (setting [3]), the IC50 is 9.83 µM. The IC50 in the data set on PC3 (setting [4]) is 9.09 µM. Further, the concentration for half-maximal inhibition (IC50) in the data set with PC3 (setting [5]) was determined as 9.09 µM. For the same molecule, in the data set on MDA-MB-231 (setting [6]), the concentration for half-maximal inhibition (IC50) came out at 8.21 µM. Besides, in the data set on MDA-MB-231 (setting [7]), the concentration for half-maximal inhibition (IC50) is 8.21 µM.

Consider `COc1cc(/C=C2/C(C)=C(CN)c3cc(F)ccc32)cc(OC)c1OC` [Compound 11, (Z)-(5-Fluoro-2-methyl-1-(3,4,5-trimethoxybenzylidene)-1H-inden-3-yl)methanamine], for which the 50% inhibitory concentration (IC50) in the data set on HT29 (setting [2]) stood at 14.6 µM; in the data set with HT29 (setting [3]) it was 14.6 µM; with PC3 (setting [4]), 29.7 µM; in the data set on PC3 (setting [5]), 29.7 µM; with MDA-MB-231 (setting [6]), 15.3 µM; in the data set on MDA-MB-231 (setting [7]) it was 15.3 µM.
